Activity calls are given as the source filed them. The calls are words filed in the database; no cut-off is given here.
Assays:
[1] = target: Cholinesterase (Homo sapiens, UniProt P06276); assay: Inhibition of human BuChE by Ellman's method
[2] = target: T1, Amine oxidase [flavin-containing] B (Homo sapiens, UniProt P27338); assay: Inhibition of human MAO-B by fluorometric assay
T1 sequence (P27338 whole entry): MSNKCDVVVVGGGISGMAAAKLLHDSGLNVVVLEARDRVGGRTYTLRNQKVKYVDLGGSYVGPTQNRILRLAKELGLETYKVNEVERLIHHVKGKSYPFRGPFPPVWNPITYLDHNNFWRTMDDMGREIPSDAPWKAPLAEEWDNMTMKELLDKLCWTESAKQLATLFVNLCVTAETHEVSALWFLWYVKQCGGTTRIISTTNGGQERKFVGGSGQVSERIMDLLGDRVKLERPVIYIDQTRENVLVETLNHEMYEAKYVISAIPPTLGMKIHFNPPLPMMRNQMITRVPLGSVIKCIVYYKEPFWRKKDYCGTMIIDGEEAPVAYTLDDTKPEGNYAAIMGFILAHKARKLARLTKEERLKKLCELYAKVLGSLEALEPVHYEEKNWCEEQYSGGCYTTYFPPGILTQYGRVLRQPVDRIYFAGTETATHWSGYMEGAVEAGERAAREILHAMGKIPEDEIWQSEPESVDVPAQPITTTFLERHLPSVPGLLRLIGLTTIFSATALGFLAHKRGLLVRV

[3] = target: T2, Acetylcholinesterase (Homo sapiens, UniProt P22303); assay: Inhibition of human AChE by Ellman's method
T2 sequence (P22303 whole entry): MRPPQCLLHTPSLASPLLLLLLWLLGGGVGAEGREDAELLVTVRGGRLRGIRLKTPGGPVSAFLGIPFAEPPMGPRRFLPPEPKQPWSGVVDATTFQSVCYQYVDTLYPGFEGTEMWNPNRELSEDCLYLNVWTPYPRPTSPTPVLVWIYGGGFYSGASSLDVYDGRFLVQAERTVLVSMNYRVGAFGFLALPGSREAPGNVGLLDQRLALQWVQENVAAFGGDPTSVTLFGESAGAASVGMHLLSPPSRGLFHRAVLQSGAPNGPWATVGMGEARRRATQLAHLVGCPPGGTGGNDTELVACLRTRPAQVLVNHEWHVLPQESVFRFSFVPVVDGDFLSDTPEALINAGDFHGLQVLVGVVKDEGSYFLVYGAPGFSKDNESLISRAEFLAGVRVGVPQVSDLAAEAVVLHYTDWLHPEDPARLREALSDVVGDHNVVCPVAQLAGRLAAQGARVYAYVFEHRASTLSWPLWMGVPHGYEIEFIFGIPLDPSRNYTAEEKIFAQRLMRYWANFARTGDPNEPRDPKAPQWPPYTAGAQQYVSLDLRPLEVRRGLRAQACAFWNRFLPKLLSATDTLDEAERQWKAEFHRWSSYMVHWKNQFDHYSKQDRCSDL

[4] = target: T3, Microtubule-associated protein tau (Homo sapiens, UniProt P10636); assay: Inhibition of cellular tau (unknown origin) aggregation at 10 uM incubated for 2 hrs by FRET assay
T3 sequence (P10636 whole entry): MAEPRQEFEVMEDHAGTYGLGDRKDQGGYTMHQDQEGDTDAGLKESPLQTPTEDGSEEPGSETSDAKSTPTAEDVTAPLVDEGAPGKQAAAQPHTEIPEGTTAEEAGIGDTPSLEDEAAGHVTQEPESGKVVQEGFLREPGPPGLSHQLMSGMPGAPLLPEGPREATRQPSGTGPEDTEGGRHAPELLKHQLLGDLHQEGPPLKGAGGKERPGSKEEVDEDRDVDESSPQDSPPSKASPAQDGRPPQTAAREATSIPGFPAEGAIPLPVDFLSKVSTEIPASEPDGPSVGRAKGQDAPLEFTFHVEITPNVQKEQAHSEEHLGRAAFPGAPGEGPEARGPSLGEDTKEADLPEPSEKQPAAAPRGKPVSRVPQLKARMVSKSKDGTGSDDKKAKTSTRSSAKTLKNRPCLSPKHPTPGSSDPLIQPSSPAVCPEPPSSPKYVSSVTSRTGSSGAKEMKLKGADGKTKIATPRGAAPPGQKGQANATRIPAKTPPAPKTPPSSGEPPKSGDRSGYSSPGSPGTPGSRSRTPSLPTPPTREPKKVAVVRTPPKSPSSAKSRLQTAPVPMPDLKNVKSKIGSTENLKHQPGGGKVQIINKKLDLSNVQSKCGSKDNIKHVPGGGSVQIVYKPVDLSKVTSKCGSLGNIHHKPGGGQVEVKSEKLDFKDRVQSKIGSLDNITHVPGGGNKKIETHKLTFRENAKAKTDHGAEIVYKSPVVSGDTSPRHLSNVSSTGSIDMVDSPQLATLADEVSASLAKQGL

[5] = target: T3, Microtubule-associated protein tau; assay: Inhibition of cellular tau (unknown origin) aggregation incubated for 2 hrs by FRET assay
[6] = target: T2, Acetylcholinesterase; assay: Inhibition of human AChE using acetylthiocholine as substrate by Ellman's method
[7] = system: SH-SY5Y; assay: Neuroprotective activity in human SH-SY5Y cell model transfected with wild-type tau assessed as cell viability at 1 to 10 uM by MTT assay; format: functional, cell-based; conditions: dose 1-10 µM
[8] = target: T2, Acetylcholinesterase; assay: Inhibition of human AChE using acetylthiocholine as substrate at 10 uM by Ellman's method
[9] = target: Amyloid-beta precursor protein (Homo sapiens) (UniProt P05067); assay: Inhibition of amyloid beta (unknown origin) aggregation at 10 uM relative to control
Amyloid-beta precursor protein (Homo sapiens), sequence (P05067 whole entry): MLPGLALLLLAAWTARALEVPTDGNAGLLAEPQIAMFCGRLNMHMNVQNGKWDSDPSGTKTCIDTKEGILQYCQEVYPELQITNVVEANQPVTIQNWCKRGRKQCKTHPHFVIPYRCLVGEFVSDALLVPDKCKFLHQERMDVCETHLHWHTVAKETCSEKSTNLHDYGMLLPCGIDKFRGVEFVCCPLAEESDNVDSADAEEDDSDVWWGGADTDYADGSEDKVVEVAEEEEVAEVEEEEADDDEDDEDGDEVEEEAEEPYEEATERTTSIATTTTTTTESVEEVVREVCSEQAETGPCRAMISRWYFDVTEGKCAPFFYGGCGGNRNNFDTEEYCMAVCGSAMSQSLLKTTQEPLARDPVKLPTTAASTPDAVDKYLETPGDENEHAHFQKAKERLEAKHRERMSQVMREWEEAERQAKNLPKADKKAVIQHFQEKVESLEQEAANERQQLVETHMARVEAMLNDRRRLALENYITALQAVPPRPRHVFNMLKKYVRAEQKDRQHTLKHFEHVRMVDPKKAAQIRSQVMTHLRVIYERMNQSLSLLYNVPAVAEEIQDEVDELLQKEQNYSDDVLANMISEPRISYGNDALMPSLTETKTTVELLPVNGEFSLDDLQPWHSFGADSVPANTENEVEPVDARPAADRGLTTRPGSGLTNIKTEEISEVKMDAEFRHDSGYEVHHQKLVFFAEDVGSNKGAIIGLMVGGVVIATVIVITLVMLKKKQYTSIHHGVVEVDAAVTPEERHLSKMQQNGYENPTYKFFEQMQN

[10] = target: T3, Microtubule-associated protein tau; assay: Inhibition of tau (unknown origin) aggregation at 10 uM relative to control
[11] = target: T2, Acetylcholinesterase; assay: Inhibition of human AChE using acetylthiocholine as substrate at 10 uM by Ellman's method relative to control

Cholinesterase, sequence (P06276 whole entry): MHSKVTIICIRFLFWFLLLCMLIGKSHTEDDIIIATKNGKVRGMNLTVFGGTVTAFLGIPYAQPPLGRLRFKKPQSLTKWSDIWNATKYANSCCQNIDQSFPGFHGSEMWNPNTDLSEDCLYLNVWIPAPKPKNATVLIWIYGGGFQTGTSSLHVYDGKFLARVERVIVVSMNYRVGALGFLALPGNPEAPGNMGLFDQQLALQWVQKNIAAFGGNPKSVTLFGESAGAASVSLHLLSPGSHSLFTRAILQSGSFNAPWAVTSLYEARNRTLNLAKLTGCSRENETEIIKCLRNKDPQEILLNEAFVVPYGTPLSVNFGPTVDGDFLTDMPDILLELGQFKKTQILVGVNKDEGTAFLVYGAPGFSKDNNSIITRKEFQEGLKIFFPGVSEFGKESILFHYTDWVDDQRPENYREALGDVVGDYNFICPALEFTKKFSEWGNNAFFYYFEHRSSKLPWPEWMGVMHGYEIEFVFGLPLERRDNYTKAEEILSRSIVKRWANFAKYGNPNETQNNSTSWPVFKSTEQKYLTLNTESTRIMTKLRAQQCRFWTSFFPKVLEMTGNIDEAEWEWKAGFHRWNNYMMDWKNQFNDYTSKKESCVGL

Row | Structure (SMILES) | inhibition [4] | EC50 [5] [µM] | IC50 [6] [µM] | Activity [7] | inhibition [8] | also measured
1 | Cc1cc(C)c(C(=O)/C=C/c2nc(C)c(C)nc2C)cc1C |  |  |  |  |  | IC50 [1]: 37.6 µM; IC50 [2]: 11.2 µM; IC50 [3]: 2.4 µM
2 | Cc1ccc(C(c2ccccc2O)N2CCN(c3cnccn3)CC2)cc1 (configuration not stated) | Active | 2.71 | 1.09 | Active | Active | 
3 | OC(CNCCC(c1ccccc1)c1ccccc1)CNCc1ccccc1 (configuration not stated) |  |  |  |  |  | inhibition [9]: 80%; inhibition [10]: 68%
4 | Oc1ccccc1C(c1ccc(C(F)(F)F)cc1)N1CCN(c2cnccn2)CC1 (configuration not stated) |  |  |  |  | Active | inhibition [11]: < 40%
5 | COc1cccc(C(c2ccc(F)cc2)N2CCN(c3cnccn3)CC2)c1O (configuration not stated) | Active | 2.21 | 0.71 | Active | Active | 

Source: ChEMBL document CHEMBL5360577, “Multicomponent Petasis reaction for the identification of pyrazine based multi-target directed anti-Alzheimer's agents: In-silico design, synthesis, and characterization” (Eur J Med Chem, 2023)
